According to the METLIN SMRT retention time set (Domingo-Almenara et al. 2019):

Assay: gradient 5% acetonitrile 3 min, to 50% in 2 min, to 85% in 15 min, held 3 min, 100 µL/min
Settings: column: Zorbax Extend-C18 2.1 x 50 mm; eluents: water / acetonitrile, 0.1% formic acid
Procedure, shortened: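 Retention time was recorded from adduct peaks, which were picked computationally and each inspected manually. Pure standards ran in mixtures of ~100 molecules on HPLC coupled to a quadrupole time-of-flight mass spectrometer, in positive and negative ionization mode, through a Zorbax Extend-C18 column (2.1 × 50 mm, 1.8 μm) at 100 μL/min. Eluents were water and acetonitrile, each with 0.1% formic acid.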

SMILES	RP-LC retention time [s]
CC(=O)N1CCC(C(=O)N2CCN(S(=O)(=O)c3ccc4c(c3)sc(=O)n4C(C)C)CC2)CC1	727
CC(C)C(=O)N1CCCC1c1nc(CCOCC2CC2)no1 (stereo not given)	733
O=C(NC1CCCCC1)c1ccc2ccnc(N3CCN(c4ccccc4)CC3)c2c1	851
Cn1cnc(S(=O)(=O)N2c3ccccc3CC2c2nnc(C3CCOCC3)o2)c1 (stereo not given)	680
CC(C)c1noc(C2CCCCN2Cc2nc(-c3cccnc3)no2)n1 (stereo not given)	832
CCN1C=C(C(=O)OCc2cc(F)ccc2F)C(C)=NS1(=O)=O	975
COc1cc2c(c(O)c1OC)-c1c(cc(OC)c(OC)c1OC)CC(C)C(C)C2 (stereo not given)	1080
CCCn1cc(CCNS(=O)(=O)CCC)c2cccnc21	720
CC(C)N(C(=O)CSc1nc2ccccc2[nH]1)c1ccccc1	650
Cc1nc(-c2cc(S(=O)(=O)N3CCC(C(=O)N4CCOCC4)CC3)c(C)s2)no1	742
O=C(NC1CCN(c2cc(-c3ccccc3)[nH]n2)C1)c1ccsc1 (stereo not given)	660
CCCn1cc(S(=O)(=O)Nc2ccccc2)c2cccnc21	838
Cc1nc(-c2ccc3c(c2)CCN3C(=O)Cc2cccs2)cs1	965
O=C(NCc1cc(F)cc(F)c1)c1cn2cc(Cl)ccc2n1	857
Cc1sc(-c2nnc(C3CCC3)o2)cc1NC(=O)c1ccc(C#N)cc1	965
O=C(Nc1nccs1)C1CCN(S(=O)(=O)c2cc(C(=O)N3CCOCC3)cs2)CC1	680
CCn1nc(C)n2cc(S(=O)(=O)NCc3cc(F)cc(F)c3)cc2c1=O	886
CC1CCc2onc(C(=O)N(CCC#N)c3ccccc3)c2C1 (stereo not given)	945
CCCCOC(=O)c1cccnc1	874
CCc1ccc(NC(=O)N2CCN(Cc3nc4ccccc4o3)CC2)cc1	738
Cc1nc(C)c(C(=O)N2CC[C@H](CO)[C@H](NC(=O)C3CC3)C2)s1	573
O=C(NCc1ccc2c(c1)OCO2)C1CC(=O)N(CCc2c[nH]c3ccc(F)cc23)C1 (stereo not given)	766
N#Cc1cccc(C(=O)NC2CCN(c3ccc(F)cc3)C2=O)c1 (stereo not given)	768
O=C([C@@H]1C[C@H](F)CN1S(=O)(=O)c1ccc(Br)s1)N1CCCCC1	839
O=C(Nc1ccc(N2CCOCC2)cc1)c1cccs1	658
CCc1onc(C)c1C1CCCN1C(=O)c1ccc(C)cc1 (stereo not given)	775
O=C(O)c1nnn(-c2ccc3c(c2)CCC3)c1-c1cccnc1	711
Cn1ccc2cc(S(=O)(=O)N3CCC(C(=O)N4CCN(c5ccccn5)CC4)CC3)ccc21	648

SMILES	RP-LC retention time [s]
Cc1cc(C(=O)N2CCCn3cc(-c4ccccc4F)nc32)nn1C	656
Cc1cc(C)cc(NC(=O)N2CCCC(C)(C(=O)NCc3ccccc3)C2)c1 (stereo not given)	959
CCCCCn1c(SCC(=O)OCC)nc2cc(C(=O)N3CCC(C(N)=O)CC3)ccc2c1=O	783
Cc1c(Cl)cccc1-n1ccn2cc(-c3ccccc3)nc2c1=O	880
O=S(=O)(NCCOc1ccccc1)c1ccccc1Cl	869
Cc1cc(C2CCCN2C(=O)Cc2ccc(Cl)cc2)no1 (stereo not given)	824
Cc1cccc(CN2N=C(C(=O)N3CCOCC3)S(=O)(=O)c3ccc(C)cc32)c1	835
CN1c2cc(F)ccc2C(=O)NC12CCN(C(=O)Nc1ccc(F)cc1F)CC2	752
O=C1C(OC2CCN(S(=O)(=O)c3ccccc3Cl)CC2)CCN1CC1CC1 (stereo not given)	870
O=C(NCc1ccco1)C(=O)NCC(c1cccnc1)N1CCOCC1 (stereo not given)	568
Cc1oc2cc3oc(=O)c(CC(=O)N4CCC(C(N)=O)CC4)c(C)c3cc2c1C	697
COC[C@@H]1CN(C(=O)Cn2nc(C(F)(F)F)cc2C)C[C@H]1C(N)=O	622
CN1CCN(c2c(C(=O)c3ccccc3)cnc3cc4c(cc23)OCO4)CC1	560
O=C(NCc1ccc(N2CCOCC2)cc1)c1cn2c(n1)COCC2	597
O=C(Cn1ccn2nc(-c3ccc(Cl)cc3)cc2c1=O)N1CCCc2ccccc21	1080
COCCn1cc(CC(=O)NC2CCCCCC2)c2cccnc21	746
O=C(Nc1cccc(F)c1)Nc1cccc(-c2ccc(N3CCOCC3)nn2)c1	697
CCCN(CC1CCOC1)S(=O)(=O)c1cccc(C)c1 (stereo not given)	931
CCCn1cc(C(=O)Nc2cccc(C)c2)c(S(=O)(=O)N2CCSCC2)n1	1120
CCC(=O)N(C1CCOCC1)C1CCN(S(=O)(=O)c2ccccc2CC)CC1	908
CC(C)CC(=O)Nc1nnc(SCc2nnc(-c3ccc4c(c3)OCO4)o2)s1	854
O=C(Nc1ccccc1Cl)N1CCc2nc[nH]c2C1	570
CCc1ccc(NC(=O)NCc2ccnc(N3CCSCC3)c2)cc1	668
Cc1cccc(N2CCN(c3ccc4cc(S(=O)(=O)N5CCCCC5)ccc4n3)CC2)c1C	1320
COc1ccc(CC2c3cc(OC)c(OC)cc3CC[N+]2(C)C)cc1OC (stereo not given)	693
O=C(NCc1cccnc1)C1CC(=O)N(c2ccc3c(c2)CCN3C(=O)C2CCC2)C1 (stereo not given)	598
CC(=O)N1c2ccc(S(=O)(=O)N3CCCC3)cc2CC1C(=O)NCCN(C)C1CCCCC1 (stereo not given)	577

Further lines, results first:

RP-LC retention time [s]	SMILES
876	COc1ccc(CNC(=O)C2CCCN(c3ccc(=O)n(-c4cccc(Cl)c4)n3)C2)c(OC)c1 (stereo not given)
878	COc1cc2c(cc1OC)C(Nc1nc(-c3ccccc3)cs1)=NC(C)(C)C2
808	COC(=O)c1c(NCc2cc(OC)ccc2OC)c2cccc(Cl)c2[nH]c1=O
891	COc1ccc2nc(C(=O)NCc3ccccc3Br)cn2n1
1160	COc1ccccc1-c1csc(-c2nnn(-c3ccc(C)cc3)c2N)n1
836	Cc1cccc(NC(=O)N2CCC(n3cnc4c(C)cccc4c3=O)CC2)c1
922	CCOc1ccc(N2CC(c3nc(-c4cccc(OC)c4OC)no3)CC2=O)cc1 (stereo not given)
729	COc1ccc(-c2cc(C(N)=O)c(C)n2C)cc1
696	Cc1cc(=O)n2c(-c3cccc(NC(=O)Cc4cccs4)c3)csc2n1
942	COC(=O)C1=CN(c2cccc(OC)c2)c2cc(Br)ccc2S1(=O)=O
805	CN1C(=O)c2cc(C(=O)NCc3ccc(Cl)cc3)nn2CC1(C)C(=O)NCc1ccc(F)cc1 (stereo not given)
846	COc1ccc2[nH]cc(CCNC(=O)c3c(-c4ccccn4)noc3C)c2c1
689	CCOC(=O)CC1(NC(=O)Nc2ccc3nc(C)cc(OC)c3c2)CCCCC1
1040	COc1ccc(OCc2nc(-c3ccc(NS(=O)(=O)c4cccs4)cc3)no2)cc1
951	CCc1nc2c(NC(=O)c3cccc(Br)c3)cccn2n1
1070	CCOC(=O)c1ccc(NC(=O)c2cnn(-c3ccc(Br)cc3)c2)cc1
633	COc1ccc(CNC(=O)C2CCN(c3cnc4nccnc4c3)CC2)cc1OC
1010	CCc1ccc(NC(=O)N2CCc3nc(-c4ccccc4)ncc3C2)cc1

RP-LC retention time [s]	SMILES
944	CCOC(=O)c1ccc(NC(=O)NCc2noc3ccc(C)cc23)cc1
803	CCOc1cc(C(=O)Nc2c(-c3ccc(OC)cc3)nc3cc(C)ccn23)cc(OCC)c1OCC
1130	COc1ccc(Br)c2c1-c1nc(NC(=O)c3ccccc3F)sc1C2
857	CCOc1ccccc1NC(=O)Cn1cccc(S(=O)(=O)N2CCC(C)CC2)c1=O
1040	COC(=O)c1ccc(NC(=O)C2=Cc3cc(OC)ccc3OC=C2)cc1
585	CN(C)c1ccc(NC(=O)COc2ccc(-c3nnc4n3CCCC4)cc2)cc1
599	CCOC(=O)C1=C(CN2CCN(CC)CC2)NC(=O)NC1c1ccc(OC)cc1 (stereo not given)
1120	O=C(CCn1c(=O)sc2ccccc21)Nc1nc(-c2ccc(Br)cc2)cs1
778	CC(=O)Nc1ccc2c(c1)CN(C(=O)c1ccc(C)cc1C)C(C(=O)N(C)C)C2 (stereo not given)
1090	CCOC(=O)c1nc(Nc2ccc(C(=O)OCC(C)C)cc2)c2ccccc2n1
771	O=C(CCn1cnc2cc(-c3noc(-c4ccc(F)cc4)n3)ccc21)N1CCCC1
634	COc1ccc(N2CCN(C(=O)C3CCN(c4cnc5nccnc5c4)CC3)CC2)cc1
723	COc1cc2nc(C(=O)N3CCCCC3)cc(Nc3cccc(SC)c3)c2cc1OC
988	CCc1ccc(N2CC(c3nc(-c4ccc(OC)cc4)no3)CC2=O)cc1 (stereo not given)
739	COC(=O)c1cc(OCC(=O)NC2CCCC2)c2cc(OC)ccc2n1
1250	CCc1ccc(-n2ncc3c(=O)n(Cc4nc(-c5ccc(F)c(Cl)c5)no4)cnc32)cc1
666	O=C(Nc1ccccc1F)Nc1c(-c2ccccc2)nc2ccccn12
